Measurements taken from US20240408064A1, “RAS INHIBITORS, COMPOSITIONS AND METHODS OF USE THEREOF” (GENETOLEAD INC., priority 2021, published 2024).
pKd: −log10 of the molar value. Values joined by “and” are separate entries in the source; they are usually repeats but may differ in a detail not shown here. Equal entries are not always repeated.

Experiments:
Type in all cases: binding
HRas^G12V [1] = target: T1, HRas^G12V (Homo sapiens (Human), UniProt P01112, G12V); assay: 19F T2-CPMG NMR score
In short: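 Fragments were pooled at 240 μM each with 50 μM HRas G12V in 25 mM sodium phosphate pH 7.4, 150 mM NaCl, 5 mM MgCl2, 1 mM TCEP-d16, 10% D2O, and screened by 1H-decoupled 1D 19F NMR at 600 MHz (64 scans, 5 s relaxation delay). T2-CPMG data were collected with 1 ms echoes and eight delays from 1 to 800 ms.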

wild type HRAS [2] = target: T2, wild type HRAS (Homo sapiens (Human), UniProt P01112); assay: NMR Kd, wild type HRAS
Method: (§1) ^1H/^15N Fast-HSQC experiments (Mori et al., Journal of Magnetic Resonance, Series B, Volume 108, Issue 1, July 1995, Pages 94-98) were recorded at a protein concentration of 50-100 μM.
(§2) Dissociation constants were obtained by monitoring changes in chemical shifts as a function of ligand concentration. The changes in chemical shifts (d) were calculated according to the following equation (Williamson, Progress in Nuclear Magnetic Resonance Spectroscopy, Volume 73, August 2013, Pages 1-16): d=√(1/2[δ_H^2+[…]]), Where δ are the changes in chemical shift in ppm for ^1H and ^15N and the correction factor (α) was set at 0.15.
(§3) ^1H 1D protein-observed experiments were recorded with 15-50 μM protein. The standard Bruker 1D ^1H sequence with excitation sculpting (zgesgp) was employed. A relaxation delay of 1 s was employed in order to use 256 scans while still keeping experimental time fairly short. Changes in protein chemical shift or peak intensity in the methyl region were monitored against compound concentration.
(§4) The activity of compounds of the invention regarding wild type HRAS was measured in the same as in Example 80. The results obtained with the compounds in the various assays described above are depicted in Table 2.

KRAS^G12D-GDP [3] = target: T3, KRAS^G12D-GDP (Homo sapiens (Human), UniProt P01116, G12D); assay: Overall activity in the various assays, KRAS^G12D-GDP
Method: (§5) The activity of compounds of the invention regarding KRAS^G12D-GDP was measured in the same as in Example 80. The results obtained with the compounds in the various assays described above are depicted in Table 23.

KRAS^G12D-GDP [4] = target: T3, KRAS^G12D-GDP; assay: NMR Kd, KRAS^G12D-GDP; details: 1H 1D protein-observed NMR, read-out: 1H 1D PO NMR Kd
Method: as §1, §2, §3, §5

GDP-HRas^G12V = GDP-HRas^G12V (Homo sapiens (Human), UniProt P01112, G12V); assay: Dissociation constant by microscale thermophoresis (MST)
Method: MST experiments were performed with a Monolith NT.115 Pico (NanoTemper Technologies, Munich, Germany). […] Data was acquired in PBS buffer with 0.1% pluronic acid. Data was analyzed with the NanoTemper MO.Affinity Analysis software.

wild type HRAS [5] = target: T2, wild type HRAS; assay: 19F DLB score, wild type HRAS
Method: (§6) Since the fragment library was curated using phosphate buffer, 25 mM sodium phosphate pH 7.4, 150 mM NaCl, 5 mM MgCl2, 1 mM TCEP-d16, 10% D2O Fresh TCEP was used for experiments. Screening was performed using ^1H-decoupled 1D ^19F experiment Bruker experiment (zgfhigqn.2) with 64 scans and a relaxation delay of 5 seconds. 50 μM HRas^G12V and 240 μM of each fragment in pools (mixtures) were used.
(§7) Hit confirmation was performed using the same ^19F experiment as the screen. Ligand-observed 1D ^1H, protein-observed 1D ^1H, ^1H T2-CPMG as well as Saturation Transfer Difference (STD) experiments were also run on the same samples. Ligand-observed 1D ^1H was run using the standard Bruker sequence with excitation sculpting (zgesgp) with a relaxation delay of 10 seconds and 16 scans per spectrum. Protein-observed 1D ^1H was performed using the same sequence with a relaxation delay of 1 second and 256 scans in order to increase the signal-to-noise of the protein resonances, while keeping the experimental time relatively short. The ^1H T2-CPMG experiment employed a modified version of the Bruker 1D ^1H zgesgp experiment with the addition of a CPMG pulse train after the first 90° excitation pulse. Total duration for each spin echo was fixed at 1 ms (τ=500 μs), while the number of echoes in the pulse train was varied according to the total time (T). The number of scans for each spectrum was 4 and eight delay times were run on each sample, ranging from 1 ms to 800 ms.
as §4

wild type HRAS [6] = target: T2, wild type HRAS; assay: 19F T2-CPMG score, wild type HRAS
Method: as §6, §7, §4

HRas^G12V [7] = target: T1, HRas^G12V; assay: Dissociation constant by ITC
Method: ITC experiments were performed using a Nano ITC isothermal titration calorimeter from TA Instruments. Experiments were performed in reverse-mode by titrating 50 μL of protein solution at a concentration of 300-600 μM into 350 μL of ligand solution at concentrations between 10-50 μM. Stir rate was 200-250 rpm with 16-25 injections, each at 2-3 μL with 150 seconds between each injection. Data fitting was performed using Nano ITCRun software.

T2 sequence (P01112 whole entry): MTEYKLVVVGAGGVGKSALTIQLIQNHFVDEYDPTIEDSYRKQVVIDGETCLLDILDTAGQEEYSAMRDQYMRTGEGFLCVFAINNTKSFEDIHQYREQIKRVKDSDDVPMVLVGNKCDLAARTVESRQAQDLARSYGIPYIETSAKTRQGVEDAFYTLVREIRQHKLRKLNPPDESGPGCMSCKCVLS
Chain of GDP-HRas^G12V (P01112 1-166 G12V): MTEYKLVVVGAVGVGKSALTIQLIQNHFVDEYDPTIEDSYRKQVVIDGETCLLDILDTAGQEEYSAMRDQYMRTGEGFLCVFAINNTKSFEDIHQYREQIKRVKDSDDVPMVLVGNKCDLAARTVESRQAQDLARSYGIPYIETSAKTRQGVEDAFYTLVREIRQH
T1 sequence (P01112 1-166 G12V): as above

19F T2-CPMG Score (HRas^G12V [1])	pKd (wild type HRAS [2])	Activity ranking on KRAS^G12D-GDP (in words) (KRAS^G12D-GDP [3])	pKd (KRAS^G12D-GDP [4])	pKd (GDP-HRas^G12V)	19F DLB Score (wild type HRAS [5])	19F T2-CPMG Score (wild type HRAS [6])	pKd (HRas^G12V [7])	Compound
32.13	–	most active	2.39 to 2.72	2.68 to 2.74	–	–	–	O=C(Cc1c[nH]c2cc(F)ccc12)N1CCC(O)CC1 [Compound 10086]
33.38	–	–	–	4.63 to 4.72	4.57	<LLOQ	–	CN(C)CCOc1cccc(NC(=O)Cc2c[nH]c3cc(F)ccc23)c1 [Compound 10095, N-(3-(2-(dimethylamino)ethoxy)phenyl)-2-(6-fluoro-1H-indol-3-yl)acetamide]
38.49	–	–	–	4.08 to 4.19	7.61	<LLOQ	3.80 to 4.77	CN(C)CC(=O)Nc1cccc(NC(=O)Cc2c[nH]c3cc(F)ccc23)c1 [compound 10097]

Compound	19F T2-CPMG Score (HRas^G12V [1])	pKd (wild type HRAS [2])	Activity ranking on KRAS^G12D-GDP (in words) (KRAS^G12D-GDP [3])	pKd (KRAS^G12D-GDP [4])	pKd (GDP-HRas^G12V)	19F DLB Score (wild type HRAS [5])	19F T2-CPMG Score (wild type HRAS [6])	pKd (HRas^G12V [7])
CC(C)N1CCC(NC(=O)Cc2c[nH]c3cc(F)ccc23)CC1 [Compound 10018]	10.62 and 11.88 and 18.24 and 9.37 and 15.13	2.29	most active	2.20 to 2.30	–	–	–	–
